Where “and” joins values, the source holds several entries; their conditions need not be identical. Equal entries are not always repeated. Toxic doses and inconclusive results are not listed. The calls were made as follows: active = survival T/C of 150% or more; inactive = T/C below 125% in these data.
Tested on: BDF1 mice, B16 melanoma ip, median survival T/C
Assay: NCI In Vivo Anticancer Drug Screen. Data for tumor model B16 Melanoma (intraperitoneal) in B6D2F1 (BDF1) mice
Conditions: endpoint: median survival time, higher = longer survival
Procedure, shortened: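 Tumor-bearing mice received test compound or vehicle. Survival or tumor size was then measured in both groups. The treated-group figure was divided by the control-group figure.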

[1] = dose: 6.25 mg/kg/injection, schedule: Q01DX009 (ip), vehicle: Klucel (hydroxypropylcellulose) (HPC)
[2] = dose: 12.5 mg/kg/injection, schedule: Q01DX009 (ip), vehicle: Klucel (hydroxypropylcellulose) (HPC)
[3] = dose: 25.0 mg/kg/injection, schedule: Q01DX009 (ip), vehicle: Klucel (hydroxypropylcellulose) (HPC)
[4] = dose: 50.0 mg/kg/injection, schedule: Q01DX009 (ip), vehicle: Klucel (hydroxypropylcellulose) (HPC)
[5] = dose: 100.0 mg/kg/injection, schedule: Q01DX009 (ip), vehicle: Klucel (hydroxypropylcellulose) (HPC)
[6] = dose: 200.0 mg/kg/injection, schedule: Q01DX009 (ip), vehicle: Klucel (hydroxypropylcellulose) (HPC)
[7] = dose: 25.0 mg/kg/injection, schedule: Q01DX009 (ip), vehicle: saline with Tween-80
[8] = dose: 50.0 mg/kg/injection, schedule: Q01DX009 (ip), vehicle: saline with Tween-80
[9] = dose: 100.0 mg/kg/injection, schedule: Q01DX009 (ip), vehicle: saline with Tween-80
[10] = dose: 12.5 mg/kg/injection, schedule: Q01DX009 (ip), vehicle: saline with Tween-80
[11] = dose: 200.0 mg/kg/injection, schedule: Q01DX009 (ip), vehicle: saline with Tween-80
[12] = dose: 400.0 mg/kg/injection, schedule: Q01DX009 (ip), vehicle: Klucel (hydroxypropylcellulose) (HPC)
[13] = dose: 400.0 mg/kg/injection, schedule: Q01DX009 (ip), vehicle: saline with Tween-80
[14] = dose: 400.0 mg/kg/injection, schedule: Q01DX009 (ip), vehicle: saline
[15] = dose: 6.25 mg/kg/injection, schedule: Q01DX009 (ip), vehicle: saline with Tween-80

Measured: T/C

COc1cc(C(=O)c2cc3c(cc2C)OCO3)cc(OC)c1OC
inactive: [1] 105 % of control | [2] 97 % of control and 115 % of control | [3] 98 % of control and 103 % of control | [4] 101 % of control and 112 % of control | [5] 109 % of control | [6] 104 % of control

CCCCc1c(C)[nH]c(=S)[nH]c1=O
inactive: [7] 110 % of control | [8] 104 % of control | [9] 97 % of control

O=C(Nc1ccccc1C(=O)O)c1cc([N+](=O)[O-])cc([N+](=O)[O-])c1
inactive: [10] 98 % of control | [7] 101 % of control | [8] 111 % of control | [9] 95 % of control | [11] 87 % of control

OCC1OC(n2cnc3cncnc32)C(O)C1O (stereo unspecified)
inactive: dose: 12.5 mg/kg/injection, schedule: Q01DX009 (ip), vehicle: saline 115 % of control

CC(=O)NC(Cc1cc(I)c(OC(C)=O)c(I)c1)C(=O)O (stereo unspecified)
inactive: [8] 100 % of control | [9] 97 % of control | [11] 90 % of control

NCCCOc1ccc([N+](=O)[O-])cc1Cl
inactive: dose: 25.0 mg/kg/injection, schedule: Q01DX009 (ip), vehicle: saline 104 % of control | dose: 50.0 mg/kg/injection, schedule: Q01DX009 (ip), vehicle: saline 104 % of control | dose: 100.0 mg/kg/injection, schedule: Q01DX009 (ip), vehicle: saline 102 % of control

CCOC(=O)c1c(C)[nH]c2c(-c3ccccc3)c3cc(Cl)ccc3nc12
inactive: [4] 100 % of control | [5] 104 % of control | [6] 94 % of control | [12] 94 % of control

CCCn1c(=S)[nH]c2ccccc2c1=O
inactive: [3] 120 % of control | [7] 100 % of control | [4] 100 % of control | [8] 92 % of control | dose: 66.0 mg/kg/injection, schedule: Q01DX009 (ip), vehicle: saline with Tween-80 100 % of control | [5] 86 % of control and 102 % of control | [9] 87 % of control and 94 % of control | dose: 150.0 mg/kg/injection, schedule: Q01DX009 (ip), vehicle: saline with Tween-80 86 % of control

O=C(c1ccncc1)c1c(Cc2ccccc2)ccc2ccccc12
inactive: [8] 100 % of control | [9] 99 % of control | [11] 95 % of control | [13] 95 % of control

ClC1=C(Cl)C2(Cl)C(COc3ccc(Cl)cc3)CC1(Cl)C2(Cl)Cl (stereo unspecified)
inactive: [10] 104 % of control | [7] 88 % of control | [8] 95 % of control

CCCOP(=S)(N1CC1)N1CC1
inactive: [7] 91 % of control | [8] 99 % of control | [9] 91 % of control | [11] 103 % of control

CC1=NN(c2ccccc2)C(=O)C1CC1C(=O)N(c2ccccc2)N=C1C (stereo unspecified)
inactive: [9] 95 % of control | [11] 95 % of control | [13] 89 % of control

O=C1CCC(=O)N1CO
inactive: dose: 37.5 mg/kg/injection, schedule: Q01DX009 (ip), vehicle: saline 107 % of control and 112 % of control | dose: 75.0 mg/kg/injection, schedule: Q01DX009 (ip), vehicle: saline 104 % of control and 107 % of control | dose: 150.0 mg/kg/injection, schedule: Q01DX009 (ip), vehicle: saline 109 % of control

O=[N+]([O-])c1ccc2c(c1)sc1cc([N+](=O)[O-])c(Br)cc12
inactive: [8] 102 % of control | [9] 102 % of control | [11] 100 % of control | [13] 90 % of control

O=C(OCC(COC(=O)c1ccccc1)(COC(=O)c1ccccc1)COC(=O)c1ccccc1)c1ccccc1
inactive: [5] 111 % of control | [6] 102 % of control | [12] 92 % of control

O=C(O)CCNCCO
inactive: [14] 97 % of control

Cc1nnc(NS(=O)(=O)c2ccc(N=Nc3nc4[nH]c(N)nc(=S)c4[nH]3)cc2)s1
inactive: [7] 112 % of control | [8] 100 % of control | [9] 92 % of control

COc1ccccc1N1CCN(CCCC(=O)c2ccc(F)cc2)CC1
inactive: dose: 0.09 mg/kg/injection, schedule: Q04DX003 (ip), vehicle: Klucel (hydroxypropylcellulose) (HPC) 93 % of control | dose: 0.19 mg/kg/injection, schedule: Q04DX003 (ip), vehicle: Klucel (hydroxypropylcellulose) (HPC) 91 % of control | dose: 0.39 mg/kg/injection, schedule: Q04DX003 (ip), vehicle: Klucel (hydroxypropylcellulose) (HPC) 96 % of control | dose: 0.78 mg/kg/injection, schedule: Q04DX003 (ip), vehicle: Klucel (hydroxypropylcellulose) (HPC) 87 % of control | dose: 1.56 mg/kg/injection, schedule: Q04DX003 (ip), vehicle: Klucel (hydroxypropylcellulose) (HPC) 90 % of control | [1] 92 % of control | [2] 92 % of control | [3] 100 % of control | [4] 105 % of control

COc1ccccc1NC(=O)Nc1cccc(Cl)c1
inactive: [15] 105 % of control | [10] 97 % of control | [7] 100 % of control

Cc1ccc[c]([Hg][Cl])c1N=Nc1ccccc1
inactive: dose: 0.39 mg/kg/injection, schedule: Q01DX009 (ip), vehicle: saline with Tween-80 101 % of control | dose: 0.78 mg/kg/injection, schedule: Q01DX009 (ip), vehicle: saline with Tween-80 100 % of control | dose: 1.56 mg/kg/injection, schedule: Q01DX009 (ip), vehicle: saline with Tween-80 97 % of control | dose: 3.12 mg/kg/injection, schedule: Q01DX009 (ip), vehicle: saline with Tween-80 97 % of control | [15] 94 % of control

CCc1ccc(NC(=O)Nc2ccc(Cl)cc2)cc1
inactive: dose: 100.0 mg/kg/injection, schedule: Q01DX009 (ip), vehicle: gum acacia 89 % of control | dose: 200.0 mg/kg/injection, schedule: Q01DX009 (ip), vehicle: gum acacia 98 % of control | dose: 400.0 mg/kg/injection, schedule: Q01DX009 (ip), vehicle: gum acacia 93 % of control

Cc1cc(N)c2cc(NC(=O)CCCCCCCCC(=O)Nc3ccc4nc(C)cc(N)c4c3)ccc2n1
inactive: dose: 3.12 mg/kg/injection, schedule: Q01DX009 (ip), vehicle: Klucel (hydroxypropylcellulose) (HPC) 89 % of control | [1] 87 % of control and 91 % of control | [2] 100 % of control | [3] 95 % of control and 107 % of control | [4] 95 % of control and 99 % of control

C=C1C(=O)OC2CC1CCC1(C)OC1CCC(C)=CCCC2(C)O (stereo unspecified)
inactive: dose: 0.04 mg/kg/injection, schedule: Q01DX009 (ip), vehicle: Klucel (hydroxypropylcellulose) (HPC) 90 % of control | dose: 0.09 mg/kg/injection, schedule: Q01DX009 (ip), vehicle: Klucel (hydroxypropylcellulose) (HPC) 91 % of control | dose: 1.8 mg/kg/injection, schedule: Q01DX009 (ip), vehicle: Klucel (hydroxypropylcellulose) (HPC) 86 % of control and 91 % of control | dose: 7.5 mg/kg/injection, schedule: Q01DX009 (ip), vehicle: Klucel (hydroxypropylcellulose) (HPC) 98 % of control

CCCCCCn1c(O)c(C=N)c(=O)[nH]c1=O
inactive: [5] 95 % of control | [6] 96 % of control | [12] 112 % of control

O=C1C=C(N2CC2)C(=O)C(N2CC2)=C1N1CC1
inactive: dose: 1.0 micrograms/kg/injection, schedule: Q01DX009 (ip), vehicle: saline 111 % of control | dose: 3.0 micrograms/kg/injection, schedule: Q01DX009 (ip), vehicle: saline 109 % of control | dose: 6.0 micrograms/kg/injection, schedule: Q01DX009 (ip), vehicle: saline 109 % of control | dose: 12.0 micrograms/kg/injection, schedule: Q01DX009 (ip), vehicle: saline 118 % of control

CC(C)(C)C(=O)C1C(=O)c2ccccc2C1=O
inactive: dose: 0.06 mg/kg/injection, schedule: Q01DX009 (ip), vehicle: Klucel (hydroxypropylcellulose) (HPC) 94 % of control | dose: 0.12 mg/kg/injection, schedule: Q01DX009 (ip), vehicle: Klucel (hydroxypropylcellulose) (HPC) 97 % of control | dose: 0.25 mg/kg/injection, schedule: Q01DX009 (ip), vehicle: Klucel (hydroxypropylcellulose) (HPC) 100 % of control and 108 % of control

CCOc1ccccc1NC(=O)CC(C)=O
inactive: [5] 100 % of control | [6] 97 % of control

O=C(O)CSC(CC(=O)O)C(=O)O (stereo unspecified)
inactive: dose: 200.0 mg/kg/injection, schedule: Q01DX009 (ip), vehicle: saline 106 % of control | [14] 106 % of control

c1ccc(Cc2ccccc2)cc1
inactive: [9] 89 % of control

CCO/C=C1\SC(=S)N(c2ccccc2C)C1=O
inactive: [7] 92 % of control | [8] 90 % of control | [9] 91 % of control

Oc1ccccc1OCc1ccccc1
inactive: dose: 100.0 mg/kg/injection, schedule: Q04DX003 (ip), vehicle: Klucel (hydroxypropylcellulose) (HPC) 107 % of control | dose: 200.0 mg/kg/injection, schedule: Q04DX003 (ip), vehicle: Klucel (hydroxypropylcellulose) (HPC) 105 % of control | dose: 400.0 mg/kg/injection, schedule: Q04DX003 (ip), vehicle: Klucel (hydroxypropylcellulose) (HPC) 105 % of control

From PubChem BioAssay AID192 (DTP/NCI, 2004)
